pEC50: −log10 of the molar value.
Assays:
[1] = Half life at 7.4 pH; type: ADME; conditions: pH 7.4
[2] = Rate constant at 7.4 pH; type: ADME; conditions: pH 7.4
Estrogen receptor = biological target: T1, Estrogen receptor (Homo sapiens, UniProt P03372); assay: Concentration required to activate luciferase expression in MCF-7-2a cells; type: functional, cell-based
T1 sequence (P03372 whole entry): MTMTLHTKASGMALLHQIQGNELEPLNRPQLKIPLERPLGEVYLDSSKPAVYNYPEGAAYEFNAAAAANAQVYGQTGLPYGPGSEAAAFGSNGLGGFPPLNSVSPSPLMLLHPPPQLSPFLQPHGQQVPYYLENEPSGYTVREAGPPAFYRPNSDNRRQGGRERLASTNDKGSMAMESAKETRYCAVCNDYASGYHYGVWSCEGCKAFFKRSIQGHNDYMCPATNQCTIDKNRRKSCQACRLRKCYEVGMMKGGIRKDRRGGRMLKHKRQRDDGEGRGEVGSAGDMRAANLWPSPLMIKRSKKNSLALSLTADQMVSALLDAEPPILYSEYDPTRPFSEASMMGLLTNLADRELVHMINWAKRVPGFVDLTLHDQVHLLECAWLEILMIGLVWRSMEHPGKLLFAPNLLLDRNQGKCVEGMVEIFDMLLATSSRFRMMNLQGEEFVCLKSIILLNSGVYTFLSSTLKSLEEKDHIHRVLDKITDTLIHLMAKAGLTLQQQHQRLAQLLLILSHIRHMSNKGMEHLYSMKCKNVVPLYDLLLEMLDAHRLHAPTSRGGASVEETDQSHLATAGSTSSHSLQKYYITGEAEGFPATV

[3] = Half life at 7.4 pH; No decomposition was observed within 55h; type: ADME; conditions: pH 7.4, 55 h
[4] = Rate constant at 7.4 pH; No decomposition was observed within 55h; type: ADME; conditions: pH 7.4, 55 h

Oc1ccc([C@H]2NC=N[C@H]2c2ccc(O)cc2Cl)c(Cl)c1
half-life [1]: 5.94 h | k obs [2]: 0.15 h⁻¹

CCCN1C=N[C@@H](c2ccc(O)cc2Cl)[C@H]1c1ccc(O)cc1Cl
pEC50 (Estrogen receptor): 6.82

N[C@H](c1ccc(O)cc1Cl)[C@@H](N)c1ccc(O)cc1Cl
pEC50 (Estrogen receptor): 5.82

CCN1C=N[C@@H](c2ccc(O)cc2Cl)[C@H]1c1ccc(O)cc1Cl
half-life [1]: 154 h | pEC50 (Estrogen receptor): 7.82 | k obs [2]: 0.004 h⁻¹

COc1ccc([C@H]2N=CN[C@H]2c2ccc(OC)cc2Cl)c(Cl)c1
half-life [1]: 4.58 h | k obs [2]: 0.198 h⁻¹

Oc1ccc([C@H]2N=CN[C@H]2c2ccc(O)cc2)cc1
half-life [1]: 6.36 h | k obs [2]: 0.122 h⁻¹

OCCC1=N[C@H](c2ccc(O)cc2Cl)[C@H](c2ccc(O)cc2Cl)N1
T1/2 [3]: Stable | k obs [4]: Stable

N[C@H](c1ccc(O)cc1Cl)[C@@H](NC=O)c1ccc(O)cc1Cl
pEC50 (Estrogen receptor): 5.52

CCN1C=[N+](CC)[C@@H](c2ccc(O)cc2Cl)[C@H]1c1ccc(O)cc1Cl
T1/2 [3]: Stable | k obs [4]: Stable | pEC50 (Estrogen receptor): 6.30

CN1C=[N+](C)[C@@H](c2ccc(O)cc2Cl)[C@H]1c1ccc(O)cc1Cl
pEC50 (Estrogen receptor): 6.11

CC1=N[C@@H](c2c(Cl)cc(O)cc2Cl)[C@@H](c2ccc(O)cc2Cl)N1
pEC50 (Estrogen receptor): 5.30

CN1C=N[C@@H](c2ccc(O)cc2Cl)[C@H]1c1ccc(O)cc1Cl
pEC50 (Estrogen receptor): 6.52

Oc1ccc([C@H]2N=CN[C@H]2c2c(Cl)cc(O)cc2Cl)c(Cl)c1
half-life [1]: 13.4 h | pEC50 (Estrogen receptor): 7.19 | k obs [2]: 0.052 h⁻¹

From ChEMBL document CHEMBL1148415, “Effects of C2-alkylation, N-alkylation, and N,N'-dialkylation on the stability and estrogen receptor interaction of (4R,5S)/(4S,5R)-4,5-bis(4-hydroxyphenyl)-2-imidazolines” (J Med Chem, 2004)
